Activity calls are given as the source filed them.
Legend:
Insulin-degrading enzyme [1] = biological target: T1, Insulin-degrading enzyme (Homo sapiens, UniProt P14735); test: cellular IDE activation of Abeta substrate cleavage – fluorescence polarization, HEK cells, dose response (AID 588439); format: functional, cell-based
T1 sequence (P14735 whole entry): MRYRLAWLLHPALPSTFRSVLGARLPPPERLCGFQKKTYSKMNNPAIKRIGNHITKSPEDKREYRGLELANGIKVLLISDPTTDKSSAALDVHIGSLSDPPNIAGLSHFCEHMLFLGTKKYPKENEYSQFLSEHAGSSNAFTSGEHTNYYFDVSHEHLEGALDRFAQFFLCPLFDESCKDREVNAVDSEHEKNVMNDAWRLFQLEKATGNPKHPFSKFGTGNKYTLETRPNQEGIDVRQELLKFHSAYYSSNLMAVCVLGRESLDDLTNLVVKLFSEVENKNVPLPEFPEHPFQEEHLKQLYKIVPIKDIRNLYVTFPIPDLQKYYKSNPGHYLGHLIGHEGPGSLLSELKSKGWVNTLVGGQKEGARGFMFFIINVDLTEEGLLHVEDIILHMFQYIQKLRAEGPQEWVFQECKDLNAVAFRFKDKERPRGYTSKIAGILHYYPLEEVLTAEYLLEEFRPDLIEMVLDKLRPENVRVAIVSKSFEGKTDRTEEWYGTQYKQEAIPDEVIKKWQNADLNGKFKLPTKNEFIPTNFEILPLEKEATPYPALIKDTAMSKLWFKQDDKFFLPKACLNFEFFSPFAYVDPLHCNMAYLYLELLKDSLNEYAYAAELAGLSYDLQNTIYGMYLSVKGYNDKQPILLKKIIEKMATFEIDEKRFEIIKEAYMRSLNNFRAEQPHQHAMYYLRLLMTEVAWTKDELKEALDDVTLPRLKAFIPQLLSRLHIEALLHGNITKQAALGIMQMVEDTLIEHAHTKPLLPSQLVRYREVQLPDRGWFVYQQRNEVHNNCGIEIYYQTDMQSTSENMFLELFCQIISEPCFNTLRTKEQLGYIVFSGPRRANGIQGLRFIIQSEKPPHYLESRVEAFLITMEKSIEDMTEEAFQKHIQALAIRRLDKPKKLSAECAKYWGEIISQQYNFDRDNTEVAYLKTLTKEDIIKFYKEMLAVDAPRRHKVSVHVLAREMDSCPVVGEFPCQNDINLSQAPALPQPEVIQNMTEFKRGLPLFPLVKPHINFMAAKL

[2] = biological target: T2, Multidrug resistance protein CDR2 (Candida albicans (strain SC5314 / ATCC MYA-2876) (Yeast), UniProt P78595); test: inhibition of Nile Red efflux via Candida CDR2 – S. cerevisiae AD1-8u, singleplex, Cherry Pick1 hits, dose response (AID 588604); format: functional
T2 sequence (P78595 whole entry): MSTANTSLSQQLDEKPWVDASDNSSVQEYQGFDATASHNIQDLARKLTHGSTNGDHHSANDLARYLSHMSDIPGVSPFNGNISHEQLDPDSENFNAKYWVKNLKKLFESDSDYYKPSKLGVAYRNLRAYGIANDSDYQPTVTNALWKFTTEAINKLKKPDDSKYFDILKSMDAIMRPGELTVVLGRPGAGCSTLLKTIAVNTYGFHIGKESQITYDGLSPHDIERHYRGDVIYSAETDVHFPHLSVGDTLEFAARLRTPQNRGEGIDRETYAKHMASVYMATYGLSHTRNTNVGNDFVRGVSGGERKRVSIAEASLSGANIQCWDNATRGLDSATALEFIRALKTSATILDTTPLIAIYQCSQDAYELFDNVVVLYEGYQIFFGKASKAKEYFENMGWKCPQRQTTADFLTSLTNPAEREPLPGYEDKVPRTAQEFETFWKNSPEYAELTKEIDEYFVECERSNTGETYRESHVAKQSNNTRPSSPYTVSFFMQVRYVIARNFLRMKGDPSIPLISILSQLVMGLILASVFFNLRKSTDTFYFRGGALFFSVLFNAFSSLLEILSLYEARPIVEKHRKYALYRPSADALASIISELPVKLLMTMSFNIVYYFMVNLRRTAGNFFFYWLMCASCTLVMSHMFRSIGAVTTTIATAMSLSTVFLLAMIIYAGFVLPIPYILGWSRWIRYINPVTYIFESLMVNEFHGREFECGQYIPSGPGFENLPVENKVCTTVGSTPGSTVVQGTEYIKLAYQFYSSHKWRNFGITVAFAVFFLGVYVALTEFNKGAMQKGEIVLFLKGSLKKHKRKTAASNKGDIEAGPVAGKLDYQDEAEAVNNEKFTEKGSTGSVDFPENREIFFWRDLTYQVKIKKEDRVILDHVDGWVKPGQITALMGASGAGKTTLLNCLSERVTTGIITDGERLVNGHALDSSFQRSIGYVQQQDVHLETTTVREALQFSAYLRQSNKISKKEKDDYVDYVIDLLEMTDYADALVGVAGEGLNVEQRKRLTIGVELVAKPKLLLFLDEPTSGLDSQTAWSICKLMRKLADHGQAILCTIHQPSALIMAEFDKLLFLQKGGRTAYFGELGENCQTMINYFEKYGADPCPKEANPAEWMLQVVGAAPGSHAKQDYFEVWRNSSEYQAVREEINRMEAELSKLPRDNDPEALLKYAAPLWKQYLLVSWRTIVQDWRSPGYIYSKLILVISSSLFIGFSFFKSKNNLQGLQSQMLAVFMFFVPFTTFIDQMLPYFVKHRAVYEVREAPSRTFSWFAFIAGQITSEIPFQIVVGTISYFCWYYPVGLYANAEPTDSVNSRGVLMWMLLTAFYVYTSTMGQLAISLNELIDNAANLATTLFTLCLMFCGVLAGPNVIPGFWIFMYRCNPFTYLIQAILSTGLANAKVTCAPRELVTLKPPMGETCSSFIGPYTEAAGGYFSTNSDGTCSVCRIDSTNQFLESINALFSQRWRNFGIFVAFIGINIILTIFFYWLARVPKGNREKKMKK

[3] = biological target: T2, Multidrug resistance protein CDR2; test: blockers of Nile Red efflux by Candida CDR2 – S. cerevisiae AD1-8u, singleplex, Cherry Pick2 set, dose response (AID 623994); format: functional; conditions: read-out: EC50_MICROM
HEK293 [4] = test: membrane integrity loss in HEK cells – cell-based, fluorescence, cytotoxicity control for IDE activator project, dose response (AID 588440); format: functional; conditions: Homo sapiens;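 further: cytotoxicity by LDH release measuring loss of membrane integrity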
Insulin-degrading enzyme [5] = biological target: T1, Insulin-degrading enzyme; test: recombinant IDE activation, cell-free – biochemical, fluorescence polarization, counter-screen for IDE activator project, dose response (AID 588681)
Melanocortin receptor 4 = Melanocortin receptor 4 (Homo sapiens, UniProt P32245); format: functional, cell-based;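 further: Cell-based assay with luminescence read-out, confirmatory dose-response testing for agonist activity of biased ligands at MC4R; human U2OS cells with tagged receptor and beta-arrestin; potency of agonists that increase receptor coupling to beta-arrestin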
Melanocortin receptor 4, sequence (P32245 whole entry): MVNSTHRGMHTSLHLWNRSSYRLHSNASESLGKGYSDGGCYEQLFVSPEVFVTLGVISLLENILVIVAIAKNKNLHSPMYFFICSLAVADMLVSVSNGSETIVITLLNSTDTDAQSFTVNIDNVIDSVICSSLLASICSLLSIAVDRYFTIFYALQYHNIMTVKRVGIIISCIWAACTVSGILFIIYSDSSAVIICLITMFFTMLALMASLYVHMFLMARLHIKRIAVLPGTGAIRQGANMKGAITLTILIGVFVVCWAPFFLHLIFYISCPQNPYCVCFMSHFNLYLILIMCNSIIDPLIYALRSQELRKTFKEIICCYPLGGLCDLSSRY

HEK293 [6] = test: optical interference in Abeta FP readout, dose response, artefact control for IDE activator project, biochemical, fluorescence polarization (AID 588442); format: functional, cell-based; conditions: Homo sapiens
[7] = biological target: Dual specificity mitogen-activated protein kinase kinase 2 (Homo sapiens, UniProt P36507); test: Navigating the Kinome. Panel member name: MAP2K2; format: functional
[8] = biological target: Vascular endothelial growth factor receptor 1 (Homo sapiens, UniProt P17948); format: functional;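 further: measured within a kinome-wide profiling panel, FLT1 as the panel member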
[9] = biological target: Insulin-like growth factor 1 receptor (Homo sapiens, UniProt P08069); test: Navigating the Kinome. Panel member name: IGF1R; format: functional
[10] = biological target: Platelet-derived growth factor receptor alpha (Homo sapiens, UniProt P16234); test: Navigating the Kinome. Panel member name: PDGFRA; format: functional
[11] = biological target: Inhibitor of nuclear factor kappa-B kinase subunit epsilon (Homo sapiens, UniProt Q14164); test: Navigating the Kinome. Panel member name: IKBKE; format: functional
[12] = biological target: Mitogen-activated protein kinase 8 (Homo sapiens, UniProt P45983); format: functional;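 further: value comes from one member of a kinome-wide kinase profiling panel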
[13] = biological target: Macrophage-stimulating protein receptor (Homo sapiens, UniProt Q04912); test: Navigating the Kinome. Panel member name: MST1R; format: functional
[14] = biological target: Vascular endothelial growth factor receptor 2 (Homo sapiens, UniProt P35968); format: functional
[15] = biological target: cAMP-dependent protein kinase catalytic subunit PRKX (Homo sapiens, UniProt P51817); format: functional
[16] = biological target: Serine/threonine-protein kinase pim-1 (Homo sapiens, UniProt P11309); format: functional
[17] = biological target: Tyrosine-protein kinase receptor TYRO3 (Homo sapiens, UniProt Q06418); format: functional;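 further: TYRO3 value obtained as one member of a kinome-wide profiling panel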
Activin receptor type-1 = Activin receptor type-1 (Homo sapiens, UniProt Q04771); test: Navigating the Kinome. Panel member name: ACVR1; format: functional
[18] = biological target: Dual specificity tyrosine-phosphorylation-regulated kinase 1B (Homo sapiens, UniProt Q9Y463); test: Navigating the Kinome. Panel member name: DYRK1B; format: functional
[19] = biological target: 5'-AMP-activated protein kinase catalytic subunit alpha-1 (Homo sapiens, UniProt Q13131); format: functional
[20] = biological target: Tyrosine-protein kinase Fyn (Homo sapiens, UniProt P06241); format: functional
[21] = biological target: BDNF/NT-3 growth factors receptor (Homo sapiens, UniProt Q16620); format: functional;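 further: NTRK2 measured as one member of a broad kinome-wide kinase profiling panel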
[22] = biological target: Dual specificity protein kinase CLK2 (Homo sapiens, UniProt P49760); format: functional
[23] = biological target: Cyclin-dependent kinase 5 (Homo sapiens, UniProt Q00535); format: functional;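 further: CDK5 measured as one member of a kinase profiling panel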
[24] = biological target: Cyclin-dependent kinase 8 (Homo sapiens, UniProt P49336); test: Navigating the Kinome. Panel member name: CDK8; format: functional
[25] = biological target: Serine/threonine-protein kinase TAO1 (Homo sapiens, UniProt Q7L7X3); format: functional
[26] = biological target: Macrophage colony-stimulating factor 1 receptor (Homo sapiens, UniProt P07333); format: functional;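 further: value comes from the Navigating the Kinome screening panel, CSF1R member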
[27] = biological target: ALK tyrosine kinase receptor (Homo sapiens, UniProt Q9UM73); format: functional;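 further: ALK tested as one member of a kinase panel screen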
[28] = biological target: Glycogen synthase kinase-3 alpha (Homo sapiens, UniProt P49840); format: functional;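 further: GSK3A result taken from a broad kinome-wide kinase panel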
[29] = biological target: Protein kinase C theta type (Homo sapiens, UniProt Q04759); test: Navigating the Kinome. Panel member name: PRKCQ; format: functional
Protein kinase C theta type, sequence (Q04759 whole entry): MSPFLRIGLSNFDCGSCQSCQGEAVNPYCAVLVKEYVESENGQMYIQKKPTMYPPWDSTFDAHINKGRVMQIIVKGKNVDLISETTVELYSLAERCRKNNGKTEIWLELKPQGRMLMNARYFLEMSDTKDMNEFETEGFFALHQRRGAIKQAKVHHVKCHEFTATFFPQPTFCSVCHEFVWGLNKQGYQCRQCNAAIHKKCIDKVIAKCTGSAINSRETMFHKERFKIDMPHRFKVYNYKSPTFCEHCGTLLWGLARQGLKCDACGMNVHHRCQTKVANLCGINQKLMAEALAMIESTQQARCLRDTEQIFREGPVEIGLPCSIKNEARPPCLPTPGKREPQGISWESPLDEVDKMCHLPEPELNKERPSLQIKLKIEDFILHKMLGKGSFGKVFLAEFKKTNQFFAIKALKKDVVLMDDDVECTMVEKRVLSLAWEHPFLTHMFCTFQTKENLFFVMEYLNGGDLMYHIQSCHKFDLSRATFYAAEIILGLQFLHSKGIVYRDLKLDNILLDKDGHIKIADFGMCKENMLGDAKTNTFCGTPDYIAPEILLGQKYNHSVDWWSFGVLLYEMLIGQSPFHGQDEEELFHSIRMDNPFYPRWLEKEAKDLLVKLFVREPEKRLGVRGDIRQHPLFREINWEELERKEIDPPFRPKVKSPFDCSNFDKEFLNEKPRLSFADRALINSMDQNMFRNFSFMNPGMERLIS

[30] = biological target: Mitogen-activated protein kinase kinase kinase kinase 2 (Homo sapiens, UniProt Q12851); format: functional;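 further: measured as one member of a kinome-wide kinase panel, with MAP4K2 as the panel entry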
[31] = biological target: Serine/threonine-protein kinase D3 (Homo sapiens, UniProt O94806); format: functional;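 further: determined within a kinase panel screen, with PRKCN as the panel member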
[32] = biological target: Hepatocyte growth factor receptor (Homo sapiens, UniProt P08581); format: functional;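 further: kinase panel profiling across the kinome, with MET as the panel member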
[33] = biological target: Rho-associated protein kinase 1 (Homo sapiens, UniProt Q13464); format: functional;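 further: measured within a broad kinome-wide panel profiling many kinases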
LIM domain kinase 1 = LIM domain kinase 1 (Homo sapiens, UniProt P53667); test: Navigating the Kinome. Panel member name: LIMK1; format: functional
[34] = biological target: Tyrosine-protein kinase ABL1 (Homo sapiens, UniProt P00519); format: functional
Activated CDC42 kinase 1 = Activated CDC42 kinase 1 (Homo sapiens, UniProt Q07912); test: Navigating the Kinome. Panel member name: ACK1; format: functional
[35] = biological target: Tyrosine-protein kinase JAK3 (Homo sapiens, UniProt P52333); format: functional
[36] = biological target: Fibroblast growth factor receptor 1 (Homo sapiens, UniProt P11362); format: functional
[37] = biological target: High affinity nerve growth factor receptor (Homo sapiens, UniProt P04629); format: functional;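 further: NTRK1 tested as one member of a kinome-wide profiling panel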
[38] = biological target: Mitogen-activated protein kinase 14 (Homo sapiens, UniProt Q16539); format: functional;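 further: part of a kinome-wide panel, MAPK14 entry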
[39] = biological target: Serine/threonine-protein kinase PAK 4 (Homo sapiens, UniProt O96013); format: functional;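 further: value obtained within a kinome profiling panel in which PAK4 was one of the panel members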
[40] = biological target: Death-associated protein kinase 3 (Homo sapiens, UniProt O43293); format: functional;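 further: measured as one member of a kinome-wide profiling panel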
[41] = biological target: Serine/threonine-protein kinase Nek2 (Homo sapiens, UniProt P51955); format: functional
[42] = biological target: Leucine-rich repeat serine/threonine-protein kinase 2 (Homo sapiens, UniProt Q5S007); format: functional;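 further: value from a broad kinome-wide panel profiling study in which LRRK2 was one of the kinases tested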
Leucine-rich repeat serine/threonine-protein kinase 2, sequence (Q5S007 whole entry): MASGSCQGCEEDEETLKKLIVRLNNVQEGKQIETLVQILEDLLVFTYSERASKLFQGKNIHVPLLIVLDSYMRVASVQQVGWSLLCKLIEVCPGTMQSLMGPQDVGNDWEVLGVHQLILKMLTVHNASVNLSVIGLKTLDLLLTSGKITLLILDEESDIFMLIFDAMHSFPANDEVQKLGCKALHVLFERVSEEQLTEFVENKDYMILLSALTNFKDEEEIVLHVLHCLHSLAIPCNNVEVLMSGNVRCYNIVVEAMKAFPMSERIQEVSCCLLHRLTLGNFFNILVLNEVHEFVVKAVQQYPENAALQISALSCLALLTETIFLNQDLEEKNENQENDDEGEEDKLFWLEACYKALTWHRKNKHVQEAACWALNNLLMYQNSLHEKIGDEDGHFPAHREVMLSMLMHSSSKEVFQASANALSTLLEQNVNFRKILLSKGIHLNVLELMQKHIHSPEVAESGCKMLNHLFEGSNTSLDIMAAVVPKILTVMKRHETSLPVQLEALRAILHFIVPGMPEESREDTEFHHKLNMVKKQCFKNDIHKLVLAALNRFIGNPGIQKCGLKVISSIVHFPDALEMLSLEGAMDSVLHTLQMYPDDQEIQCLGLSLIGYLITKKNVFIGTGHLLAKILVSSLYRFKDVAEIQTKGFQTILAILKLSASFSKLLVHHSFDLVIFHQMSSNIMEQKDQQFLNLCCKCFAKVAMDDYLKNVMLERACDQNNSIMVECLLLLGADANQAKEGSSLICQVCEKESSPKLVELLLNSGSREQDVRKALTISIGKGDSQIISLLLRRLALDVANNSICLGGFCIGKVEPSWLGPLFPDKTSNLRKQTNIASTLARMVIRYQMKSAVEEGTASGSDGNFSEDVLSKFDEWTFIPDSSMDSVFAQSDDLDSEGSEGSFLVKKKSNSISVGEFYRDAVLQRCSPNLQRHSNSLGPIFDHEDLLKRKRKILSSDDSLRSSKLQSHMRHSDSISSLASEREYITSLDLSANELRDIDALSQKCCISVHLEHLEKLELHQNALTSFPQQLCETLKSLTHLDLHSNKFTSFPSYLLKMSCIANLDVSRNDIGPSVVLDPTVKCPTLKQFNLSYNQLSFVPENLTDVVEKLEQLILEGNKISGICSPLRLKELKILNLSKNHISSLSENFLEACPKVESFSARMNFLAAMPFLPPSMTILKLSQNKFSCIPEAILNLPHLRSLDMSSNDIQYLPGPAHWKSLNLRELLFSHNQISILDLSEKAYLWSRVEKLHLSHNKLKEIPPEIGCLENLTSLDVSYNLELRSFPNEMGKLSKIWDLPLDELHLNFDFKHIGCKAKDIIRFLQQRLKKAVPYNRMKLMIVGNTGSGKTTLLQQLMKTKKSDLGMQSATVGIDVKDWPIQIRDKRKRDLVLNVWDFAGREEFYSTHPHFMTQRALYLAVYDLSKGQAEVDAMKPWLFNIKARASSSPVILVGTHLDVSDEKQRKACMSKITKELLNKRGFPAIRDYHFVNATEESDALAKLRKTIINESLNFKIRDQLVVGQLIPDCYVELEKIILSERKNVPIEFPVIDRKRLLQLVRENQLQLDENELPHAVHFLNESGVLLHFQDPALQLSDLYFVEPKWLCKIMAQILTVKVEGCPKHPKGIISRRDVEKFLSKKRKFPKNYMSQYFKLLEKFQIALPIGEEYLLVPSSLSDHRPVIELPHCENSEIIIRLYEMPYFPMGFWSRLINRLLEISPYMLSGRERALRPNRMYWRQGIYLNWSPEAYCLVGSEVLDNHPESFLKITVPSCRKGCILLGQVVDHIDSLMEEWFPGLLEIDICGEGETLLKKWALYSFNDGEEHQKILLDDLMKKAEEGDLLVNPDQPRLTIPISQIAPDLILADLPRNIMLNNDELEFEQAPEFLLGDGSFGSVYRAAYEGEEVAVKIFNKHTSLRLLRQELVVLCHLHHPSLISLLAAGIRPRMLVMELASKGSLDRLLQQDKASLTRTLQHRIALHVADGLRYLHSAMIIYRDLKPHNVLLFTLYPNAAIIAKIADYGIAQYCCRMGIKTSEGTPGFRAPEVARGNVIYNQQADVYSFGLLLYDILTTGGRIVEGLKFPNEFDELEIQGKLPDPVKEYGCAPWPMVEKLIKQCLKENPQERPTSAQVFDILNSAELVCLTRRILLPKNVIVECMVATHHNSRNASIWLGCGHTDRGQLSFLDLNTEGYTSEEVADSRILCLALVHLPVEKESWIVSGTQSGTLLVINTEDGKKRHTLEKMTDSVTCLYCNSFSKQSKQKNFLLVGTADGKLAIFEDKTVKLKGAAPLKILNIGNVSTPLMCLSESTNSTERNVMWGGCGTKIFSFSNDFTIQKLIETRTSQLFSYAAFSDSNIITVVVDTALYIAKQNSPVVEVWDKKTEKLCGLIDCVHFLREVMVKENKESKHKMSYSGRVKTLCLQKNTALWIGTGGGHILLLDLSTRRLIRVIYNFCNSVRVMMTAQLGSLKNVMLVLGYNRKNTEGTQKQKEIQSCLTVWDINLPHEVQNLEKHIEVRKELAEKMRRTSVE

[43] = biological target: Leukocyte tyrosine kinase receptor (Homo sapiens, UniProt P29376); test: Navigating the Kinome. Panel member name: LTK; format: functional
[44] = biological target: Cyclin-dependent kinase 7 (Homo sapiens, UniProt P50613); format: functional;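 further: value comes from a kinome-wide kinase profiling panel in which CDK7 is one member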
[45] = biological target: Tyrosine-protein kinase Lck (Homo sapiens, UniProt P06239); format: functional;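 further: lck was assayed as one member of a kinase panel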
[46] = biological target: Serine/threonine-protein kinase Chk1 (Homo sapiens, UniProt O14757); format: functional;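 further: measured as one member of a kinome-wide kinase profiling panel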
[47] = biological target: Mitogen-activated protein kinase 9 (Homo sapiens, UniProt P45984); format: functional;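 further: value from a kinome panel profiling assay, MAPK9 panel entry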
[48] = biological target: Dual specificity mitogen-activated protein kinase kinase 1 (Homo sapiens, UniProt Q02750); test: Navigating the Kinome. Panel member name: MAP2K1; format: functional
[49] = biological target: Dual specificity protein kinase CLK4 (Homo sapiens, UniProt Q9HAZ1); format: functional
[50] = biological target: G protein-coupled receptor kinase 5 (Homo sapiens, UniProt P34947); test: Navigating the Kinome. Panel member name: GPRK5; format: functional
[51] = biological target: Serine/threonine-protein kinase TBK1 (Homo sapiens, UniProt Q9UHD2); test: Navigating the Kinome. Panel member name: TBK1; format: functional
[52] = biological target: Tyrosine-protein kinase JAK2 (Homo sapiens, UniProt O60674); format: functional;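 further: JAK2 tested as one member of a kinase panel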
[53] = biological target: Calcium/calmodulin-dependent protein kinase type II subunit alpha (Homo sapiens, UniProt Q9UQM7); test: Navigating the Kinome. Panel member name: CAMK2A; format: functional
[54] = biological target: Glycogen synthase kinase-3 beta (Homo sapiens, UniProt P49841); format: functional;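 further: value comes from a broad kinome profiling panel, with GSK3B as the panel member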
[55] = biological target: Receptor-type tyrosine-protein kinase FLT3 (Homo sapiens, UniProt P36888); format: functional;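 further: FLT3 was tested as one member of a kinome-wide kinase panel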
Aurora kinase B = Aurora kinase B (Homo sapiens, UniProt Q96GD4); format: functional

Cc1ccc2sc(N(CCCN(C)C)C(=O)c3ccc(Br)s3)nc2c1C
EC50 (Insulin-degrading enzyme [1]): 20.1 µM (inactive)
EC50 [2]: 10.3 µM (active)
EC50 [3]: 50.5 µM (active)
IC50 (HEK293 [4]): 35.3 µM (inactive)
EC50 (Insulin-degrading enzyme [5]): > 54.7 µM (inactive)
EC50 (Melanocortin receptor 4): > 89.2 µM (inactive)
EC50 (HEK293 [6]): > 54.7 µM (inactive)

Cc1cc(OCc2ccc(Cl)c(Cl)c2)ccc1CN1CC(C(=O)O)C1
Ki [7]: > 3.98 µM (inactive)
Ki [8]: > 3.98 µM (inactive)
Ki [9]: > 2.51 µM (inactive)
Ki [10]: 200 nM (active)
Ki [11]: > 3.16 µM (inactive)
Ki [12]: > 5.01 µM (inactive)
Ki [13]: > 3.98 µM (inactive)
Ki [14]: > 2.51 µM (inactive)
Ki [15]: > 3.16 µM (inactive)
Ki [16]: > 6.31 µM (inactive)
Ki [17]: > 3.16 µM (inactive)
Ki (Activin receptor type-1): > 3.98 µM (inactive)
Ki [18]: > 2.51 µM (inactive)
Ki [19]: > 3.16 µM (inactive)
Ki [20]: > 6.31 µM (inactive)
Ki [21]: > 3.98 µM (inactive)
Ki [22]: > 3.98 µM (inactive)
Ki [23]: > 3.16 µM (inactive)
Ki [24]: > 3.98 µM (inactive)
Ki [25]: > 6.31 µM (inactive)
Ki [26]: > 2.51 µM (inactive)
Ki [27]: > 6.31 µM (inactive)
Ki [28]: > 3.98 µM (inactive)
Ki [29]: > 2.51 µM (inactive)
Ki [30]: > 2.51 µM (inactive)
Ki [31]: > 3.98 µM (inactive)
Ki [32]: > 2.51 µM (inactive)
Ki [33]: 3.16 µM (active)
Ki (LIM domain kinase 1): > 3.16 µM (inactive)
Ki [34]: > 2.51 µM (inactive)
Ki (Activated CDC42 kinase 1): > 3.98 µM (inactive)
Ki [35]: > 5.01 µM (inactive)
Ki [36]: > 3.98 µM (inactive)
Ki [37]: > 3.16 µM (inactive)
Ki [38]: > 3.98 µM (inactive)
Ki [39]: > 5.01 µM (inactive)
Ki [40]: > 5.01 µM (inactive)
Ki [41]: > 3.16 µM (inactive)
Ki [42]: > 2.51 µM (inactive)
Ki [43]: > 2.51 µM (inactive)
Ki [44]: > 3.98 µM (inactive)
Ki [45]: > 6.31 µM (inactive)
Ki [46]: > 3.16 µM (inactive)
Ki [47]: > 3.98 µM (inactive)
Ki [48]: > 3.16 µM (inactive)
Ki [49]: > 2.51 µM (inactive)
Ki [50]: > 3.98 µM (inactive)
Ki [51]: > 3.16 µM (inactive)
Ki [52]: > 2.51 µM (inactive)
Ki [53]: > 3.98 µM (inactive)
Ki [54]: > 3.98 µM (inactive)
Ki [55]: > 3.16 µM (inactive)
Ki (Aurora kinase B): > 3.98 µM (inactive)

— ChEMBL document CHEMBL1201862, “PubChem BioAssay data set” (2004)
